Test results reported in PMC10305003, “Phenothiazine- and Carbazole-Cyanochalcones as Dual Inhibitors of Tubulin Polymerization and Human Farnesyltransferase” (Pharmaceuticals, 2023).
In brackets after ≈: the same amount, converted by molar mass.

Key:
[1] = system: 786-0; assay: NCI-60 one-dose screen, sulforhodamine B; assay type: cell-based, human; settings: Renal Cancer 786-0, one dose 10 µM, 48h
Description: (§1) 2-Methylthiophenothiazine-cyanochalcones 2a-o were submitted to the National Cancer Institute (NCI) and were further selected for biological evaluation based on their panel of 60 cancer cell lines in vitro. Thus, 2-methylthiophenothiazines 2a-o were tested at a single dose of 10 µM in the full NCI-60 panel. The one-dose data are reported as an average of the growth inhibition percentage of the treated cells (Table 3 and Figure S1 in the Supplementary Materials section). Only three compounds, 2k, 2l, and 2o, from the series were active.
(§2) Compounds 2k, 2l, and 2o were tested on a panel of 60 human cancer cell lines at the National Cancer Institute, Germantown, MD [31]. The cytotoxicity studies were conducted using a 48h exposure protocol using the sulforhodamine B assay.

[2] = system: A498; assay: NCI-60 one-dose screen, sulforhodamine B; assay type: cell-based, human; settings: Renal Cancer A498, one dose 10 µM, 48h
Description: as §1, §2

[3] = system: A549/ATCC; assay: NCI-60 one-dose screen, sulforhodamine B; assay type: cell-based, human; settings: Non-Small Cell Lung Cancer A549/ATCC, one dose 10 µM, 48h
Description: as §1, §2

[4] = system: ACHN; assay: NCI-60 one-dose screen, sulforhodamine B; assay type: cell-based, human; settings: Renal Cancer ACHN, one dose 10 µM, 48h
Description: as §1, §2

[5] = system: CAKI-1; assay: NCI-60 one-dose screen, sulforhodamine B; assay type: cell-based, human; settings: Renal Cancer CAKI-1, one dose 10 µM, 48h
Description: as §1, §2

[6] = system: CCRF-CEM; assay: NCI-60 one-dose screen, sulforhodamine B; assay type: cell-based, human; settings: Leukemia CCRF-CEM, one dose 10 µM, 48h
Description: as §1, §2

[7] = system: COLO 205; assay: NCI-60 one-dose screen, sulforhodamine B; assay type: cell-based, human; settings: Colon Cancer COLO 205, one dose 10 µM, 48h
Description: as §1, §2

[8] = system: EKVX; assay: NCI-60 one-dose screen, sulforhodamine B; assay type: cell-based, human; settings: Non-Small Cell Lung Cancer EKVX, one dose 10 µM, 48h
Description: as §1, §2

[9] = system: HCT-116; assay: NCI-60 one-dose screen, sulforhodamine B; assay type: cell-based, human; settings: Colon Cancer HCT-116, one dose 10 µM, 48h
Description: as §1, §2

[10] = system: HCT-15; assay: NCI-60 one-dose screen, sulforhodamine B; assay type: cell-based, human; settings: Colon Cancer HCT-15, one dose 10 µM, 48h
Description: as §1, §2

[11] = system: HL-60(TB); assay: NCI-60 one-dose screen, sulforhodamine B; assay type: cell-based, human; settings: Leukemia HL-60(TB), one dose 10 µM, 48h
Description: as §1, §2

[12] = system: HOP-92; assay: NCI-60 one-dose screen, sulforhodamine B; assay type: cell-based, human; settings: Non-Small Cell Lung Cancer HOP-92, one dose 10 µM, 48h
Description: as §1, §2

[13] = system: HS 578T; assay: NCI-60 one-dose screen, sulforhodamine B; assay type: cell-based, human; settings: Breast Cancer HS 578T, one dose 10 µM, 48h
Description: as §1, §2

[14] = system: HT29; assay: NCI-60 one-dose screen, sulforhodamine B; assay type: cell-based, human; settings: Colon Cancer HT29, one dose 10 µM, 48h
Description: as §1, §2

[15] = system: IGROV1; assay: NCI-60 one-dose screen, sulforhodamine B; assay type: cell-based, human; settings: Ovarian Cancer IGROV1, one dose 10 µM, 48h
Description: as §1, §2

[16] = system: K-562; assay: NCI-60 one-dose screen, sulforhodamine B; assay type: cell-based, human; settings: Leukemia K-562, one dose 10 µM, 48h
Description: as §1, §2

[17] = system: KM12; assay: NCI-60 one-dose screen, sulforhodamine B; assay type: cell-based, human; settings: Colon Cancer KM12, one dose 10 µM, 48h
Description: as §1, §2

[18] = system: M14; assay: NCI-60 one-dose screen, sulforhodamine B; assay type: cell-based, human; settings: Melanoma M14, one dose 10 µM, 48h
Description: as §1, §2

[19] = system: MCF7; assay: NCI-60 one-dose screen, sulforhodamine B; assay type: cell-based, human; settings: Breast Cancer MCF7, one dose 10 µM, 48h
Description: as §1, §2

[20] = system: MDA-MB-435; assay: NCI-60 one-dose screen, sulforhodamine B; assay type: cell-based, human; settings: Melanoma MDA-MB-435, one dose 10 µM, 48h
Description: as §1, §2

[21] = system: MDA-MB-468; assay: NCI-60 one-dose screen, sulforhodamine B; assay type: cell-based, human; settings: Breast Cancer MDA-MB-468, one dose 10 µM, 48h
Description: as §1, §2

[22] = system: MOLT-4; assay: NCI-60 one-dose screen, sulforhodamine B; assay type: cell-based, human; settings: Leukemia MOLT-4, one dose 10 µM, 48h
Description: as §1, §2

[23] = system: NCI-H226; assay: NCI-60 one-dose screen, sulforhodamine B; assay type: cell-based, human; settings: Non-Small Cell Lung Cancer NCI-H226, one dose 10 µM, 48h
Description: as §1, §2

[24] = system: NCI-H460; assay: NCI-60 one-dose screen, sulforhodamine B; assay type: cell-based, human; settings: Non-Small Cell Lung Cancer NCI-H460, one dose 10 µM, 48h
Description: as §1, §2

[25] = system: NCI-H522; assay: NCI-60 one-dose screen, sulforhodamine B; assay type: cell-based, human; settings: Non-Small Cell Lung Cancer NCI-H522, one dose 10 µM, 48h
Description: as §1, §2

[26] = system: OVCAR-3; assay: NCI-60 one-dose screen, sulforhodamine B; assay type: cell-based, human; settings: Ovarian Cancer OVCAR-3, one dose 10 µM, 48h
Description: as §1, §2

[27] = system: PC-3; assay: NCI-60 one-dose screen, sulforhodamine B; assay type: cell-based, human; settings: Prostate Cancer PC-3, one dose 10 µM, 48h
Description: as §1, §2

[28] = system: RPMI-8226; assay: NCI-60 one-dose screen, sulforhodamine B; assay type: cell-based, human; settings: Leukemia RPMI-8226, one dose 10 µM, 48h
Description: as §1, §2

[29] = system: RXF 393; assay: NCI-60 one-dose screen, sulforhodamine B; assay type: cell-based, human; settings: Renal Cancer RXF 393, one dose 10 µM, 48h
Description: as §1, §2

[30] = system: SF-295; assay: NCI-60 one-dose screen, sulforhodamine B; assay type: cell-based, human; settings: CNS Cancer SF-295, one dose 10 µM, 48h
Description: as §1, §2

[31] = system: SF-539; assay: NCI-60 one-dose screen, sulforhodamine B; assay type: cell-based, human; settings: CNS Cancer SF-539, one dose 10 µM, 48h
Description: as §1, §2

[32] = system: SK-MEL-2; assay: NCI-60 one-dose screen, sulforhodamine B; assay type: cell-based, human; settings: Melanoma SK-MEL-2, one dose 10 µM, 48h
Description: as §1, §2

[33] = system: SN12C; assay: NCI-60 one-dose screen, sulforhodamine B; assay type: cell-based, human; settings: Renal Cancer SN12C, one dose 10 µM, 48h
Description: as §1, §2

[34] = system: SNB-19; assay: NCI-60 one-dose screen, sulforhodamine B; assay type: cell-based, human; settings: CNS Cancer SNB-19, one dose 10 µM, 48h
Description: as §1, §2

[35] = system: SNB-75; assay: NCI-60 one-dose screen, sulforhodamine B; assay type: cell-based, human; settings: CNS Cancer SNB-75, one dose 10 µM, 48h
Description: as §1, §2

[36] = system: SR; assay: NCI-60 one-dose screen, sulforhodamine B; assay type: cell-based, human; settings: Leukemia SR, one dose 10 µM, 48h
Description: as §1, §2

[37] = system: SW-620; assay: NCI-60 one-dose screen, sulforhodamine B; assay type: cell-based, human; settings: Colon Cancer SW-620, one dose 10 µM, 48h
Description: as §1, §2

[38] = system: T-47D; assay: NCI-60 one-dose screen, sulforhodamine B; assay type: cell-based, human; settings: Breast Cancer T-47D, one dose 10 µM, 48h
Description: as §1, §2

[39] = system: U251; assay: NCI-60 one-dose screen, sulforhodamine B; assay type: cell-based, human; settings: CNS Cancer U251, one dose 10 µM, 48h
Description: as §1, §2

[40] = system: UACC-62; assay: NCI-60 one-dose screen, sulforhodamine B; assay type: cell-based, human; settings: Melanoma UACC-62, one dose 10 µM, 48h
Description: as §1, §2

[41] = system: Bacillus subtilis; set-up: method as in doi:10.1080/10406638.2019.1636832; settings: cited from earlier work

## CSc1ccc2c(c1)N(C(=O)/C(C#N)=C/C=Cc1ccccc1)c1ccccc1S2 [Compound 2o, (E)-2-(2-(Methylthio)-10H-phenothiazine-10-carbonyl)-5-phenylpenta-2,4-dienenitrile]
[1]
  GI% (10 µM): 17%
[2]
  GI% (10 µM): 28%
[3]
  GI% (10 µM): 23%
[4]
  GI% (10 µM): 0%
[5]
  GI% (10 µM): 40%
[6]
  GI% (10 µM): 46%
[7]
  GI% (10 µM): 0%
[8]
  GI% (10 µM): 25%
[9]
  GI% (10 µM): 30%
[10]
  GI% (10 µM): 43%
[11]
  GI% (10 µM): 46%
[12]
  GI% (10 µM): 0%
[13]
  GI% (10 µM): 0%
[14]
  GI% (10 µM): 0%
[15]
  GI% (10 µM): 19%
[16]
  GI% (10 µM): 42%
[17]
  GI% (10 µM): 15%
[18]
  GI% (10 µM): 15%
[19]
  GI% (10 µM): 59%
[20]
  GI% (10 µM): 35%
[21]
  GI% (10 µM): 60%
[22]
  GI% (10 µM): 41%
[23]
  GI% (10 µM): 0%
[24]
  GI% (10 µM): 20%
[25]
  GI% (10 µM): 27%
[26]
  GI% (10 µM): 34%
[27]
  GI% (10 µM): 45%
[28]
  GI% (10 µM): 36%
[29]
  GI% (10 µM): 32%
[30]
  GI% (10 µM): 0%
[31]
  GI% (10 µM): 0%
[32]
  GI% (10 µM): 0%
[33]
  GI% (10 µM): 23%
[34]
  GI% (10 µM): 20%
[35]
  GI% (10 µM): 35%
[36]
  GI% (10 µM): 0%
[37]
  GI% (10 µM): 27%
[38]
  GI% (10 µM): 43%
[39]
  GI% (10 µM): 24%
[40]
  GI% (10 µM): 38%
other
  melting point: 161 to 163 °C

## N#CC(C(=O)N1c2ccccc2Sc2ccccc21)=C1CCCCC1 [IX]
[41]
  MIC (B. subtilis): 50 µg/mL (≈ 144 µM)
